Measured values reported in ChEMBL document CHEMBL5725362, “Long chain base sphingosine kinase inhibitors” (2017).

Molecular target: Sphingosine kinase 1 (Homo sapiens, UniProt Q9NYA1)
Test: Scintillation Proximity Assay: SphK activity was measured by a scintillation proximity assay as previously described [1], the disclosure of which is incorporated herein. Briefly, recombinant SphK1 or SphK2 were expressed in Sf9 insect cells, crude homogenates were prepared and incubated in 96 well FlashPlates (Perkin-Elmer) in a buffer containing D-erythro-sphingosine and γ-[33P]ATP. The [33P]S1P …

Chain of Sphingosine kinase 1 (Q9NYA1 whole entry): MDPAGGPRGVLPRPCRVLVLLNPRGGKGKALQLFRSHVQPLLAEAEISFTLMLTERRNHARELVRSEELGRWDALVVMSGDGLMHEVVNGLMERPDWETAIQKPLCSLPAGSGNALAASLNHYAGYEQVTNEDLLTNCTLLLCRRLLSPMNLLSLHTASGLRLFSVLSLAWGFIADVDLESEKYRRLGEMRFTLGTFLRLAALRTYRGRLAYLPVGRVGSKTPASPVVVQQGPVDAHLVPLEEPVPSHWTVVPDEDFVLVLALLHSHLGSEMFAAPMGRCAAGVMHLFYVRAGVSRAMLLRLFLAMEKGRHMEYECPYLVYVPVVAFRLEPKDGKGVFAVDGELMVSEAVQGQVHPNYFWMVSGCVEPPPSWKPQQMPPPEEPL

Ki	SMILES
< 1000 nM	CCCCCCCCCCCCc1cccc(-c2noc(C3(C(=N)N)CC3)n2)c1
< 1000 nM	CCCCCCCCCCCc1cc(-c2noc(C3(C(=N)N)CC3)n2)ccc1C
< 1000 nM	CCCCCCCCCCCc1cc(-c2nnc(C3(C(=N)N)CC3)o2)ccc1C
< 1000 nM	CCCCCCCCCCCc1cc(-c2nnc(C3(C(=N)N)CC3)o2)ccc1F
< 1000 nM	CCCCCCCCCCCc1ccc(C)c(-c2nnc(C3(C(=N)N)CC3)o2)c1

More lines, now with the values behind:

SMILES	Ki
N=C(N)N1CCC[C@H]1c1nc(-c2ccc(CS(=O)(=O)c3ccccc3)cc2)no1	> 10000 nM
N=C(N)C1(c2nnc(-c3ccc(CCCCCCCOCC4CCCCC4)cc3)o2)CC1	< 1000 nM
N=C(N)C1(c2nc(-c3cccc(CCCCCCOCC4CCCCC4)c3)no2)CC1	< 1000 nM
CCCCCCCCCCCc1ccc(F)c(-c2nnc(C3(C(=N)N)CC3)o2)c1	< 1000 nM
N=C(N)C1(c2nnc(-c3cccc(CCCCCCOCC4CCCCC4)c3)o2)CC1	< 1000 nM
CCCCCCCCCCc1ccc(/C=C/C2(C(=N)N)CC2)cc1	> 10000 nM
N=C(N)C1(c2nc(-c3cccc(CCc4cccc(CCC5CCCCC5)c4)c3)no2)CC1	< 1000 nM
CCCCCCCCCCCc1cccc(-c2nc(C3(C(=N)N)CC3)n[nH]2)c1	< 1000 nM
CCCCCCCCCCCc1cccc(-c2nnc(C3(C(=N)N)CC3)o2)c1	< 1000 nM
